Assay results published in EPA's ToxValDB 9.5 (doi:10.2903/j.efsa.2010.1711).
Several values for one entry are separate records, joined by “and”; a condition that tells them apart may be missing. Identical values can stand only once.

What was measured:
[1] = test system: Oncorhynchus mykiss
[2] = test system: Bibionidae; settings: chronic/long-term; duration: 28 days; development
[3] = test system: Apis mellifera; settings: acute; duration: 96 hours; oral; unspecified; mortality
[4] = test system: Colinus virginianus
[5] = test system: Rattus norvegicus
[6] = test system: Daphnia magna; settings: chronic/long-term; duration: 21 days; reproduction
[7] = test system: Tagia sp.; settings: acute; duration: 14 days; mortality
[8] = test system: Anas platyrhynchos
[9] = test system: Typhlodromus pyri; assay: LR50; higher = less toxic; settings: acute; duration: 7 days; mortality
[10] = test system: Aphidius rhopalosiphi; assay: LR50; higher = less toxic; settings: acute; duration: 48 hours; mortality

CC(C)([CH2][Sn]([CH2]C(C)(C)c1ccccc1)([CH2]C(C)(C)c1ccccc1)[O][Sn]([CH2]C(C)(C)c1ccccc1)([CH2]C(C)(C)c1ccccc1)[CH2]C(C)(C)c1ccccc1)c1ccccc1 [Fenbutatin oxide]
LC50 ([1]; acute, duration: 96 hours, mortality): 1.14 ng/mL
NOEC ([1]; chronic/long-term, duration: 62 days, growth): 0.0002 mg/L
NOEC [2]: > 1000 mg/kg
LD50 [3]: > 200 µg/piece
LC50 ([4]; acute, oral, diet, mortality): > 1610 mg/kg-day
LD50 ([4]; acute, oral, mortality): > 2510 mg/kg-day
NOEC ([4]; reproduction developmental): 14.4 mg/kg-day
NOAEC ([5]; acute, inhalation, mortality): 5.13 mg/kg-day
LD50 ([5]; acute, oral, F, mortality): > 3000 mg/kg-day
NOAEL ([5]; chronic, duration: 2 years, clinical signs): 5 mg/kg-day
NOAEL ([5]; reproduction developmental, body weight): 4.5 mg/kg-day and 10 mg/kg-day
NOEC [6]: 0.004 mg/L
LC50 [7]: > 1000 mg/kg
NOEC ([8]; reproductive): 16.8 mg/kg-day
LC50 ([8]; short-term, oral, feed, mortality): > 968 mg/kg-day
LR50 [9]: 468 g/ha
LR50 [10]: > 85.9 g/ha
